Laboratory results: publication PMC4408270 (Bioorganic & medicinal chemistry letters, 2015)
Where a chain is given by its changes, count along the chain named. Entries after “also recorded” stand apart in the source; their conditions may differ. Read-outs that look alike come from different tables or passages of the source.

Tests used:
CCK2R [1] = biological target: T1, CCK2R (Homo sapiens, UniProt P32239); test: Intracellular calcium response in CHO-CCK2R cells; format: cell-based
T1 sequence (P32239 1-447): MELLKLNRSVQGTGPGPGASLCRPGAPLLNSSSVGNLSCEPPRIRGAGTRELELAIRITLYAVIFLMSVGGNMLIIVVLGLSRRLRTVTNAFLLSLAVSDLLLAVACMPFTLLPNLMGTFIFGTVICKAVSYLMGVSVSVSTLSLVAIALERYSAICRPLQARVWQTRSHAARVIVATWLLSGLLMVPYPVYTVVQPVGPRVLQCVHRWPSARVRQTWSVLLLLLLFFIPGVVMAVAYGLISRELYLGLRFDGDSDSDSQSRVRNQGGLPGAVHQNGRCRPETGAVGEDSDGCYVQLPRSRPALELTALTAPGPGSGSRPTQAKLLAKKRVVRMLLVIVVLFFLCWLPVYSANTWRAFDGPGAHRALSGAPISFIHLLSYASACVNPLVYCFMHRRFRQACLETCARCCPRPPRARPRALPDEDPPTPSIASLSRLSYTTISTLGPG

CCK1R [2] = biological target: T2, CCK1R (Homo sapiens, UniProt P32238); format: cell-based
T2 sequence (P32238 1-428): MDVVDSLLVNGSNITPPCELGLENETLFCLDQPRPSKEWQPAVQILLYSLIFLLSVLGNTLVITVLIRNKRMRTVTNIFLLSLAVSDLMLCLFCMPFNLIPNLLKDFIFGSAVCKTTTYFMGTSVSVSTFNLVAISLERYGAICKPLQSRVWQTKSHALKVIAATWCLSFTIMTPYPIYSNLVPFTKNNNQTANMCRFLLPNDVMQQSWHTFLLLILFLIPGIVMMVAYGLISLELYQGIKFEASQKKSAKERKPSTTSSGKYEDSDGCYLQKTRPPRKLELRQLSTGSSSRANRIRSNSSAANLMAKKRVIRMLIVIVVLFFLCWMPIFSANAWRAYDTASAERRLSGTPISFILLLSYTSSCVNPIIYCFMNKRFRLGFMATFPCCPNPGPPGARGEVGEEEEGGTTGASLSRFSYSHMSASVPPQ

[3] = biological target: T3, CCK2R TM6 (V6.51I, Y6.52F) (Homo sapiens, UniProt P32239, V349I/Y350F); test: 125I-BDZ-2 competition binding, chimeric construct
T3 sequence (P32239 1-447 V349I/Y350F): T1 sequence (P32239 1-447) with V349I, Y350F

[4] = tested on: CCK2R TM chimeric constructs; test: 125I-BDZ-2 competition binding, CCK2R-based chimeras as a group
CCK1R [5] = biological target: T2, CCK1R; test: Competition binding of orthosteric radioligand 125I-CCK, CHO cell membranes
CCK2R TM2 (T2.61N) [6] = biological target: T4, CCK2R TM2 (T2.61N) (Homo sapiens, UniProt P32239, T111N); test: 125I-CCK competition binding, chimeric construct
T4 sequence (P32239 1-447 T111N): T1 sequence (P32239 1-447) with T111N

CCK1R [7] = biological target: T2, CCK1R; test: Intracellular calcium response in CHO-CCK1R cells; format: cell-based; conditions: % of the ATP (0.1mM) positive control
CCK2R TM2 (T2.61N) [8] = biological target: T4, CCK2R TM2 (T2.61N); test: 125I-BDZ-2 competition binding, chimeric construct; conditions: NDB = no detectable binding
CCK2R [9] = biological target: T1, CCK2R; test: Competition binding of orthosteric radioligand 125I-CCK, CHO cell membranes; conditions: 125I-CCK radioligand
[10] = biological target: T3, CCK2R TM6 (V6.51I, Y6.52F); test: 125I-CCK competition binding, chimeric construct
[11] = biological target: T5, CCK2R TM3 (V3.28T, S3.29T) (Homo sapiens, UniProt P32239, S131T/V130T); test: 125I-CCK competition binding, chimeric construct
T5 sequence (P32239 1-447 V130T/S131T): T1 sequence (P32239 1-447) with V130T, S131T

Row | SMILES | Intracellular calcium response at CCK2R-expressing cells (CCK2R [1]) | Decrease in efficacy of the CCK response (CCK1R [2]; 1µM compound) [%] | Allosteric modulatory (PAM) activity on CCK dose-response curve (CCK1R [2]; increasing concentrations of compound) | IC50 [3] [µM] | Change in binding affinity at chimeras vs wild type CCK2R [4] | Shift to the right in the CCK dose-response curve (CCK1R [2]; 100nM compound) [fold] | Shift to the right in the CCK dose-response curve (CCK1R [2]; 1µM compound) [fold] | IC50 (CCK1R [5]) [µM] | IC50 (CCK2R TM2 (T2.61N) [6]) [µM] | Right shift (poorer affinity) vs wild type CCK2R (CCK2R TM2 (T2.61N) [6]; 125I-CCK, CCK2R TM2 substitution) [fold] | Intrinsic agonist response (CCK1R [7]; 100nM compound) [%] | Intrinsic agonist response (CCK1R [7]; 1µM compound) [%] | IC50, 125I-BDZ-2 (CCK2R TM2 (T2.61N) [8]) | Fold lower IC50 at CCK2R than at CCK1R (CCK2R [9]) | IC50 [10] [µM] | IC50 [11] [µM]
1 | O=C(CN1C(=O)C(NC(=O)Nc2ccccc2)C(=O)N(c2ccccc2)c2ccccc21)Nc1ccccc1 (stereo not drawn) | stimulated no intracellular calcium responses | 11 | – | – | – | – | – | – | – | – | – | – | – | – | – | –
2 | CC(C)N(C(=O)CN1C(=O)[C@H](NC(=O)Nc2cccc(C(=O)O)c2)C(=O)N(c2ccccc2)c2ccccc21)c1ccccc1 [GI181771X, reference compound] | – | – | did not yield a significant left-shift or an increase in efficacy; also recorded: no PAM activity | – | – | – | – | – | – | – | – | – | – | – | – | –
3 | COc1ccc(N(C)C(=O)CN2C(=O)C(NC(=O)Nc3ccccc3)C(=O)N(c3ccccc3)c3ccccc32)cc1 (stereo not drawn) [GR135470X] | stimulated no intracellular calcium responses | 14 | – | 0.036 ± 0.0055 | none of the chimeras tested exhibited a change in binding affinities | 3.6 | 8.5 | 0.45 ± 0.104 | 0.519 ± 0.138 | 10 | 43 | 48 | NDB | ~ 9 fold | 0.165 ± 0.038 | 0.0101 ± 0.0016
